Activity calls are given as the source filed them. No rule for the calls is given here.
Tested on: GENE-TOX genotoxicity assays, various organisms and cells
Assay: GENE-TOX mutagenicity studies
[1] = Species/Cell Type: Drosophila melanogaster, Assay Type: Sex-linked recessive lethal gene mutation, Assay Code: SRL+, Evaluation Type: Evaluation A (Pre-1980)
[2] = Species/Cell Type: Salmonella typhimurium (one or more of the five standard strains: TA98, TA100, TA1535, TA1537, and TA1538), Assay Type: Histidine reverse gene mutation, Ames assay, Assay Code: SALT, Evaluation Type: Evaluation A (Pre-1980)
[3] = Species/Cell Type: Rabbit, Sex: Male, Assay Type: Sperm morphology, Assay Code: SPRT, Evaluation Type: Evaluation A (Pre-1980)
[4] = Species/Cell Type: Saccharomyces cerevisiae, Assay Type: Reverse gene mutation, Assay Code: YERT, Evaluation Type: Evaluation A (Pre-1980)

CCCCOc1ccc2nc3cc(Cl)ccc3c(NCCCNCCCl)c2n1
mutagenic call (Species/Cell Type: Chinese hamster ovary (CHO) cells, Assay Type: Forward gene mutation at the HPRT locus, Assay Code: CHO+, Evaluation Type: Evaluation B (Post-1980)): active; positive

COS(=O)(=O)OC
mutagenic call (Species/Cell Type: Arabidopsis species, Assay Type: Gene mutation, Assay Code: ARM+, Evaluation Type: Evaluation A (Pre-1980)): active; positive | mutagenic call (Species/Cell Type: Aspergillus nidulans, Assay Type: Forward gene mutation, Assay Code: ASF+, Evaluation Type: Evaluation A (Pre-1980)): active; positive | mutagenic call (Species/Cell Type: Chinese hamster ovary (CHO) cells, Assay Type: Forward gene mutation at the HPRT locus, Assay Code: CHO+D, Dose Response: With dose response, Evaluation Type: Evaluation A (Pre-1980)): active; positive | mutagenic call (Species/Cell Type: Drosophila melanogaster, Assay Type: Aneuploidy, partial sex chromosome loss, chromosome aberrations, Assay Code: DAP-M, Evaluation Type: Evaluation A (Pre-1980)): inactive; negative | mutagenic call (Species/Cell Type: Drosophila melanogaster, Assay Type: Aneuploidy, whole sex chromosome loss, chromosome aberrations, Assay Code: DAC+M, Evaluation Type: Evaluation A (Pre-1980)): active; positive | mutagenic call [1]: active; positive | mutagenic call (Species/Cell Type: Drosophila melanogaster, Sex: Male, Assay Type: Heritable translocation test, chromosome aberrations, Assay Code: DHT+, Evaluation Type: Evaluation A (Pre-1980)): active; positive | mutagenic call (Species/Cell Type: Escherichia coli polA (W3119 vs P3478), Assay Type: Rec-assay, DNA effects (bacterial DNA repair), Assay Code: RE1+, Evaluation Type: Evaluation A (Pre-1980)): active; positive | mutagenic call (Species/Cell Type: Human, Assay Type: Sister-chromatid exchange (SCE) in vitro, Assay Code: SC1+D, Dose Response: With dose response, Evaluation Type: Evaluation A (Pre-1980)): active; positive | mutagenic call (Species/Cell Type: Nonhuman, Assay Type: Chromosome aberrations in vitro, Assay Code: CY&+, Evaluation Type: Evaluation A (Pre-1980)): active; positive | call (Species/Cell Type: Nonhuman, Assay Type: In vivo carcinogenicity studies, Assay Code: CCG+, Evaluation Type: Evaluation A (Pre-1980)): active; positive | mutagenic call (Species/Cell Type: Nonhuman, Assay Type: Sister-chromatid exchange (SCE) in vitro, Assay Code: SC2+, Evaluation Type: Evaluation A (Pre-1980)): active; positive | mutagenic call (Species/Cell Type: Saccharomyces cerevisiae, Assay Type: Reverse gene mutation, Assay Code: YER+, Evaluation Type: Evaluation A (Pre-1980)): active; positive | mutagenic call [2]: no conclusion | mutagenic call (Species/Cell Type: Salmonella typhimurium, Assay Type: Forward and reverse gene mutation, host-mediated assay, Assay Code: HMA+, Evaluation Type: Evaluation A (Pre-1980)): active; positive | mutagenic call (Species/Cell Type: Schizosaccharomyces pombe, Assay Type: Reverse gene mutation, Assay Code: YEZ+, Evaluation Type: Evaluation A (Pre-1980)): active; positive

Cc1cc2c(C(C)C)c(O)c(O)c(C=O)c2c(O)c1-c1c(C)cc2c(C(C)C)c(O)c(O)c(C=O)c2c1O
mutagenic call (Species/Cell Type: Human lymphocytes, Assay Type: Sister-chromatid exchange (SCE) in vitro, Assay Code: SCL+, Evaluation Type: Evaluation B (Post-1980)): active; positive | mutagenic call (Species/Cell Type: Human, Assay Type: Sister-chromatid exchange (SCE) in vitro, Assay Code: SC1+, Evaluation Type: Evaluation B (Post-1980)): active; positive | mutagenic call (Species/Cell Type: Human, Sex: Male, Assay Type: Sperm morphology, Assay Code: SPH+, Evaluation Type: Evaluation A (Pre-1980)): active; positive | mutagenic call (Species/Cell Type: Mouse, Sex: Male, Assay Type: Sperm morphology, Assay Code: SPI+, Evaluation Type: Evaluation A (Pre-1980)): active; positive | mutagenic call [3]: no conclusion | mutagenic call (Species/Cell Type: Rat, Sex: Male, Assay Type: Sperm morphology, Assay Code: SPA+, Evaluation Type: Evaluation A (Pre-1980)): active; positive

ClCc1c2ccccc2cc2c1ccc1ccccc12
mutagenic call (Species/Cell Type: Salmonella typhimurium (one or more of the five standard strains: TA98, TA100, TA1535, TA1537, and TA1538), Assay Type: Histidine reverse gene mutation, Ames assay, Assay Code: SAL+, Evaluation Type: Evaluation A (Pre-1980)): active; positive

Cc1c(N(C)C)c(=O)n(-c2ccccc2)n1C
mutagenic call (Species/Cell Type: Nonhuman, Assay Type: Sister-chromatid exchange (SCE) in vitro, Assay Code: SC2-, Evaluation Type: Evaluation A (Pre-1980)): inactive; negative

O=C(O)c1ccccc1N=Nc1ccc(N(CCCl)CCCl)cc1
mutagenic call [1]: active; positive

O=C1C=C(N2CC2)C(=O)C2=C1CCCC2
mutagenic call [1]: active; positive

COc1cc(/C=N/NC(=O)COc2ccc(Br)cc2CN(C)C)ccc1O
mutagenic call [4]: no conclusion

CC1=C(/C=C/C(C)=C/C=C/C(C)=C/C=C/C=C(C)/C=C/C=C(C)/C=C/C2=C(C)CCCC2(C)C)C(C)(C)CCC1
mutagenic call (Species/Cell Type: Bacillus subtilis (H17 vs M45T), Assay Type: Rec-assay, spot test, DNA effects (bacterial DNA repair), Assay Code: REXT, Evaluation Type: Evaluation A (Pre-1980)): no conclusion | mutagenic call (Species/Cell Type: Mammalian polychromatic erythrocytes, Assay Type: Micronucleus test, chromosome aberrations, Assay Code: MNTT, Evaluation Type: Evaluation B (Post-1980)): no conclusion

CCN(CC)CCn1c2ccc(C)c3c2c([n+]1[O-])-c1ccc(Cl)cc1S3
mutagenic call [2]: no conclusion

Cc1c2cccc(F)c2c(C)c2c1ccc1ccccc12
mutagenic call (Species/Cell Type: Chinese hamster lung (V79) cells, Assay Type: Forward gene mutation at the HPRT or ouabain locus, Assay Code: V79+, Evaluation Type: Evaluation A (Pre-1980)): active; positive

ClCC1OC1CCl (stereo unspecified)
mutagenic call [1]: active; positive

CCCCOc1ccc(CC(=O)OC)cc1CSC(=N)N
mutagenic call [4]: no conclusion

CCS(=O)(=O)OC
mutagenic call (Species/Cell Type: Glycine max (soybean), Assay Type: Gene mutation, Assay Code: GLM+, Evaluation Type: Evaluation A (Pre-1980)): active; positive | mutagenic call (Species/Cell Type: Hordeum vulgare (barley), Assay Type: Chromosome aberrations, Assay Code: HOC+, Evaluation Type: Evaluation A (Pre-1980)): active; positive | mutagenic call (Species/Cell Type: Hordeum vulgare (barley), Assay Type: Gene mutation, Assay Code: HOM+D, Dose Response: With dose response, Evaluation Type: Evaluation A (Pre-1980)): active; positive | mutagenic call [3]: no conclusion

Nc1ccc(-c2nc(N3CCOCC3)c3ccccc3n2)s1
mutagenic call [2]: no conclusion

Oc1cccc(O)c1O
mutagenic call (Species/Cell Type: Allium cepa, Assay Type: Chromosome aberrations, Assay Code: ALC+, Evaluation Type: Evaluation A (Pre-1980)): active; positive | mutagenic call (Species/Cell Type: Mammalian polychromatic erythrocytes, Assay Type: Micronucleus test, chromosome aberrations, Assay Code: MNT+, Evaluation Type: Evaluation B (Post-1980)): active; positive

C1=CC2OC2c2cc3ccc4ccccc4c3cc21 (stereo unspecified)
mutagenic call (Species/Cell Type: Drosophila melanogaster, Assay Type: Sex-linked recessive lethal gene mutation, Assay Code: SRLT, Evaluation Type: Evaluation A (Pre-1980)): no conclusion | mutagenic call (Species/Cell Type: Mouse prostate cells, Assay Type: Cell transformation, Assay Code: CTM+, Evaluation Type: Evaluation A (Pre-1980)): active; positive

NCCSSCCN
mutagenic call (Species/Cell Type: Human lymphocytes, Assay Type: Sister-chromatid exchange (SCE) in vitro, Assay Code: SCLT, Evaluation Type: Evaluation B (Post-1980)): no conclusion | mutagenic call (Species/Cell Type: Human, Assay Type: Sister-chromatid exchange (SCE) in vitro, Assay Code: SC1T, Evaluation Type: Evaluation B (Post-1980)): no conclusion | mutagenic call (Species/Cell Type: Nonhuman, Assay Type: Sister-chromatid exchange (SCE) in vitro, Assay Code: SC2+D, Dose Response: With dose response, Evaluation Type: Evaluation B (Post-1980)): active; positive

— PubChem BioAssay AID1259408 (Genetic Toxicology Data Bank (GENE-TOX), 2018)
